Test results reported in patent US9771406B2, “Peptidic dual GLP-1/glucagon receptor agonists derived from exendin-4” (priority 2014, dated 2017).
Where two headings read alike, the source gives them in different places.

Assays:
human GLP-1 receptor = target: T1, human GLP-1 receptor (Homo sapiens, UniProt P43220); assay: cAMP response of HEK-293 cells stably expressing human GLP-1 receptor (HTRF); type: cell-based; settings: Table 6; cAMP formation; read-out: EC50 hGLP-1R
T1 construct: expressed in transfected cells; host or cells: HEK-293
T1 sequence (P43220 24-463): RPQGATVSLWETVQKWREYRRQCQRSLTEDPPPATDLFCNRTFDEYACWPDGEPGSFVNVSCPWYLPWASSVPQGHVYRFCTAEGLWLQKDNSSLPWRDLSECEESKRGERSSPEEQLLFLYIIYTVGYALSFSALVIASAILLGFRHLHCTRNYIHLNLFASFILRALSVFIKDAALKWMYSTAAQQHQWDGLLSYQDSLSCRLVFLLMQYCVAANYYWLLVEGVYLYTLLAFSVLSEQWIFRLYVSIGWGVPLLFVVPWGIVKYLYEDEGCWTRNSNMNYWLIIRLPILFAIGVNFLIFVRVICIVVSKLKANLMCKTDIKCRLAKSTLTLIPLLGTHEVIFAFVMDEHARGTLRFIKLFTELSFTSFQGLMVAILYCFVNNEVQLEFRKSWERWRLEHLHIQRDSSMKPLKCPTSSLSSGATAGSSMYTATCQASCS
Procedure: (§1) cAMP content of cells was determined using a kit from Cisbio Corp. (cat. no. 62AM4PEC) based on HTRF (Homogenous Time Resolved Fluorescence). For preparation, cells were split into T175 culture flasks and grown overnight to near confluency in medium (DMEM/10% FBS). Medium was then removed and cells washed with PBS lacking calcium and magnesium, followed by proteinase treatment with accutase (Sigma-Aldrich cat. no. A6964). Detached cells were washed and resuspended in assay buffer (1×HBSS; 20 mM HEPES, 0.1% BSA, 2 mM IBMX) and cellular density determined. They were then diluted to 400000 cells/ml and 25 μl-aliquots dispensed into the wells of 96-well plates. For measurement, 25 μl of test compound in assay buffer was added to the wells, followed by incubation for 30 minutes at room temperature.
(§2) Potencies of peptidic compounds at the GLP-1, glucagon and GIP receptors were determined by exposing cells expressing human glucagon receptor (hGCG R), human GIP (hGIP R) and human GLP-1 receptor (hGLP-1 R) to the listed compounds at increasing concentrations and measuring the formed cAMP as described in Methods.

[1] = Solubility testing of exendin-4 derivatives (HPLC-UV of supernatant); type: physicochemical
Procedure: Prior to the testing of solubility and stability of a peptide batch, its purity (HPLC-UV) was determined. […] Therefore, solutions from solid samples were prepared in different buffer systems with a concentration of 10 mg/mL compound based on the previously determined % purity. HPLC-UV was performed after 2 h of gentle agitation from the supernatant, which was obtained by 20 min of centrifugation at 4500 rpm. […] This analysis also served as starting point (t0) for the stability testing.

human GIP receptor = target: T2, human GIP receptor (Homo sapiens, UniProt P48546); assay: cAMP response of HEK-293 cells stably expressing human GIP receptor (HTRF); type: cell-based; settings: Table 6; cAMP formation; read-out: EC50 hGIP-R
T2 construct: expressed in transfected cells; host or cells: HEK-293
T2 sequence (P48546 22-466): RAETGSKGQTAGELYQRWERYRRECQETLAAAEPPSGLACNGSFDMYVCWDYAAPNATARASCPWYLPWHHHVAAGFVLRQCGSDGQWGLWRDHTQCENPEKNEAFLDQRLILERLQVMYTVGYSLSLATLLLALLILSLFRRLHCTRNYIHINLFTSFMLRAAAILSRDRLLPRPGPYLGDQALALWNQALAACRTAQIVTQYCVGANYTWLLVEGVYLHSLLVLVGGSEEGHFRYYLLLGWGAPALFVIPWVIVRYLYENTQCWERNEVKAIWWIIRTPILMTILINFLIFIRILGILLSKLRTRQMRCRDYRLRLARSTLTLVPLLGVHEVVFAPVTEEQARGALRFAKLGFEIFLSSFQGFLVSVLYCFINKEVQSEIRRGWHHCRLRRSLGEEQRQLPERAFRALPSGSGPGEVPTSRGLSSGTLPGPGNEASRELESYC
Procedure: as §1, §2

human glucagon receptor = target: T3, human glucagon receptor (Homo sapiens, UniProt P47871); assay: cAMP response of HEK-293 cells stably expressing human glucagon receptor (HTRF); type: cell-based; settings: Table 6; cAMP formation; read-out: EC50 hGlucagon-R
T3 construct: expressed in transfected cells; host or cells: HEK-293
T3 sequence (P47871 26-477): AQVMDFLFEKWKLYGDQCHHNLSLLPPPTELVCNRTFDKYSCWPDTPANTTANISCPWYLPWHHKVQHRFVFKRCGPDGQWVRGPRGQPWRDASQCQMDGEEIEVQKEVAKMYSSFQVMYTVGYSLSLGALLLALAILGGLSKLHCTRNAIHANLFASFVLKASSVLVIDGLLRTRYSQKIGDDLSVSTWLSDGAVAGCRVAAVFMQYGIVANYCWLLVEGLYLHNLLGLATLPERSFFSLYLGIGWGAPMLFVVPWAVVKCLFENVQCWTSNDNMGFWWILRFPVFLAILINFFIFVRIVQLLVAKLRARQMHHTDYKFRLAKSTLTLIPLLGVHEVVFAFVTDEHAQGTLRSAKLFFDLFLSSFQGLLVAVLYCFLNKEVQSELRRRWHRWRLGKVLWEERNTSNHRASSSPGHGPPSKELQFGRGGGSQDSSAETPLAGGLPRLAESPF
Procedure: as §1, §2

[2] = Stability testing in solution, 7 days at 40° C. (% remaining peptide, HPLC-UV); type: physicochemical
Procedure: After that time course, the sample was centrifuged for 20 min at 4500 rpm and 0.2 μL of the supernatant were analysed with HPLC-UV.
For determination of the amount of the remaining peptide, the peak areas of the target compound at t0 and t7 were compared, resulting in “% remaining peptide”, following the equation % remaining peptide=[(peak area peptide t7)×100]/peak area peptide t0.
The stability is expressed as “% remaining peptide”.

Row | Structure (SMILES) | EC50 (human GLP-1 receptor) [nM] | EC50 (human GIP receptor) [nM] | EC50 (human glucagon receptor) [nM] | further results
1 | CCCCCCCCCCCCCCCC(=O)N[C@@H](CCC(=O)N[C@@H](CCC(=O)NCCCC[C@H](NC(=O)[C@H](CCC(N)=O)NC(=O)[C@H](CCCCN)NC(=O)[C@H](CO)NC(=O)[C@H](CC(C)C)NC(=O)[C@H](CC(=O)O)NC(=O)[C@H](CO)NC(=O)[C@@H](NC(=O)[C@H](Cc1ccccc1)NC(=O)[C@@H](NC(=O)CNC(=O)[C@H](CCC(N)=O)NC(=O)C(C)(C)NC(=O)[C@@H](N)Cc1c[nH]cn1)[C@@H](C)O)[C@@H](C)O)C(=O)N[C@@H](CCC(=O)O)C(=O)N[C@@H](CCC(=O)O)C(=O)N[C@@H](CCC(=O)O)C(=O)N[C@@H](C)C(=O)N[C@H](C(=O)N[C@@H](CCCNC(=N)N)C(=O)N[C@@H](CC(C)C)C(=O)N[C@@H](Cc1ccccc1)C(=O)N[C@H](C(=O)N[C@@H](CCC(=O)O)C(=O)N[C@@H](Cc1c[nH]c2ccccc12)C(=O)N[C@@H](CC(C)C)C(=O)N[C@@H](CCCCN)C(=O)N[C@@H](C)C(=O)NCC(=O)NCC(=O)N1CCC[C@H]1C(=O)N[C@@H](CO)C(=O)N[C@@H](CO)C(=O)NCC(=O)N[C@@H](C)C(=O)N1CCC[C@H]1C(=O)N1CCC[C@H]1C(=O)N1CCC[C@H]1C(=O)N[C@@H](CO)C(N)=O)[C@@H](C)CC)C(C)C)C(=O)O)C(=O)O [compound 24] | 0.0045 | – | – | –
2 | CCCCCCCCCCCCCCCCCC(=O)N[C@@H](CCC(=O)NCCCC[C@H](NC(=O)[C@H](CCC(N)=O)NC(=O)[C@H](CCCCN)NC(=O)[C@H](CO)NC(=O)[C@H](CC(C)C)NC(=O)[C@H](CC(=O)O)NC(=O)[C@H](CO)NC(=O)[C@@H](NC(=O)[C@H](Cc1ccccc1)NC(=O)[C@@H](NC(=O)CNC(=O)[C@H](Cc1c[nH]cn1)NC(=O)[C@@H](CO)NC(=O)[C@@H](N)Cc1c[nH]cn1)[C@@H](C)O)[C@@H](C)O)C(=O)N[C@@H](CCC(=O)O)C(=O)N[C@@H](CCC(=O)O)C(=O)N[C@@H](CCC(=O)O)C(=O)N[C@@H](C)C(=O)N[C@H](C(=O)N[C@@H](CCCNC(=N)N)C(=O)N[C@@H](CC(C)C)C(=O)N[C@@H](Cc1ccccc1)C(=O)N[C@H](C(=O)N[C@@H](CCC(=O)O)C(=O)N[C@@H](Cc1c[nH]c2ccccc12)C(=O)N[C@@H](CC(C)C)C(=O)N[C@@H](CCCCN)C(=O)N[C@@H](C)C(=O)NCC(=O)NCC(=O)N1CCC[C@H]1C(=O)N[C@@H](CO)C(=O)N[C@@H](CO)C(=O)NCC(=O)N[C@@H](C)C(=O)N1CCC[C@H]1C(=O)N1CCC[C@H]1C(=O)N1CCC[C@H]1C(=O)N[C@@H](CO)C(N)=O)[C@@H](C)CC)C(C)C)C(=O)O [compound 9] | – | – | – | solubility at 2 h ([1]; pH 4.5): > 5000 µg/mL; solubility at 2 h ([1]; pH 7.4): > 5000 µg/mL
3 | CCCCCCCCCCCCCCCCCC(=O)N[C@@H](CCC(=O)NCCCC[C@H](NC(=O)[C@H](CCC(N)=O)NC(=O)[C@H](CCCCN)NC(=O)[C@H](CO)NC(=O)[C@H](CC(C)C)NC(=O)[C@H](CC(=O)O)NC(=O)[C@H](CO)NC(=O)[C@@H](NC(=O)[C@H](Cc1ccccc1)NC(=O)[C@@H](NC(=O)CNC(=O)[C@H](Cc1c[nH]cn1)NC(=O)[C@@H](CO)NC(=O)[C@@H](N)Cc1c[nH]cn1)[C@@H](C)O)[C@@H](C)O)C(=O)N[C@@H](CCC(=O)O)C(=O)N[C@@H](CCC(=O)O)C(=O)N[C@@H](CCC(=O)O)C(=O)N[C@@H](C)C(=O)N[C@H](C(=O)N[C@@H](CCCNC(=N)N)C(=O)N[C@@H](CC(C)C)C(=O)N[C@@H](Cc1ccccc1)C(=O)N[C@H](C(=O)N[C@@H](CCC(=O)O)C(=O)N[C@@H](Cc1c[nH]c2ccccc12)C(=O)N[C@@H](CC(C)C)C(=O)N[C@@H](CCCCN)C(=O)N[C@@H](C)C(=O)NCC(=O)NCC(=O)N1CCC[C@H]1C(=O)N[C@@H](CO)C(=O)N[C@@H](CO)C(=O)NCC(=O)N[C@@H](C)C(=O)N1CCC[C@H]1C(=O)N1CCC[C@H]1C(=O)N1CCC[C@H]1C(=O)N[C@@H](CO)C(N)=O)[C@@H](C)CC)C(C)C)C(=O)O [compound 25] | 0.0081 | 0.407 | 0.0399 | –
4 | CCCCCCCCCCCCCCCCCC(=O)N[C@@H](CCC(=O)NCCCC[C@H](NC(=O)[C@H](CCC(N)=O)NC(=O)[C@H](CCCCN)NC(=O)[C@H](CO)NC(=O)[C@H](CC(C)C)NC(=O)[C@H](CC(=O)O)NC(=O)[C@H](CO)NC(=O)[C@@H](NC(=O)[C@H](Cc1ccccc1)NC(=O)[C@@H](NC(=O)CNC(=O)[C@H](Cc1c[nH]cn1)NC(=O)C(C)(C)NC(=O)[C@@H](N)Cc1c[nH]cn1)[C@@H](C)O)[C@@H](C)O)C(=O)N[C@@H](CCC(=O)O)C(=O)N[C@@H](CCC(=O)O)C(=O)N[C@@H](CCC(=O)O)C(=O)N[C@@H](C)C(=O)N[C@H](C(=O)N[C@@H](CCCNC(=N)N)C(=O)N[C@@H](CC(C)C)C(=O)N[C@@H](Cc1ccccc1)C(=O)N[C@H](C(=O)N[C@@H](CCC(=O)O)C(=O)N[C@@H](Cc1c[nH]c2ccccc12)C(=O)N[C@@H](CC(C)C)C(=O)N[C@@H](CCCCN)C(=O)N[C@@H](C)C(=O)NCC(=O)NCC(=O)N1CCC[C@H]1C(=O)N[C@@H](CO)C(=O)N[C@@H](CO)C(=O)NCC(=O)N[C@@H](C)C(=O)N1CCC[C@H]1C(=O)N1CCC[C@H]1C(=O)N1CCC[C@H]1C(=O)N[C@@H](CO)C(N)=O)[C@@H](C)CC)C(C)C)C(=O)O [compound 7] | 0.0065 | 0.0256 | 0.0058 | –
5 | CCCCCCCCCCCCCCCC(=O)N[C@@H](CCC(=O)N[C@@H](CCC(=O)NCCCC[C@H](NC(=O)[C@H](CCC(N)=O)NC(=O)[C@H](CCCCN)NC(=O)[C@H](CO)NC(=O)[C@H](CC(C)C)NC(=O)[C@H](CC(=O)O)NC(=O)[C@H](CO)NC(=O)[C@@H](NC(=O)[C@H](Cc1ccccc1)NC(=O)[C@@H](NC(=O)CNC(=O)[C@H](Cc1c[nH]cn1)NC(=O)[C@@H](CO)NC(=O)[C@@H](N)Cc1c[nH]cn1)[C@@H](C)O)[C@@H](C)O)C(=O)N[C@@H](CCC(=O)O)C(=O)N[C@@H](CCC(=O)O)C(=O)N[C@@H](CCC(=O)O)C(=O)N[C@@H](C)C(=O)N[C@H](C(=O)N[C@@H](CCCNC(=N)N)C(=O)N[C@@H](CC(C)C)C(=O)N[C@@H](Cc1ccccc1)C(=O)N[C@H](C(=O)N[C@@H](CCC(=O)O)C(=O)N[C@@H](Cc1c[nH]c2ccccc12)C(=O)N[C@@H](CC(C)C)C(=O)N[C@@H](CCCCN)C(=O)N[C@@H](C)C(=O)NCC(=O)NCC(=O)N1CCC[C@H]1C(=O)N[C@@H](CO)C(=O)N[C@@H](CO)C(=O)NCC(=O)N[C@@H](C)C(=O)N1CCC[C@H]1C(=O)N1CCC[C@H]1C(=O)N1CCC[C@H]1C(=O)N[C@@H](CO)C(N)=O)[C@@H](C)CC)C(C)C)C(=O)O)C(=O)O [compound 13] | – | 0.079 | 0.0225 | –
6 | CCCCCCCCCCCCCCCCCC(=O)N[C@@H](CCC(=O)NCCCC[C@H](NC(=O)[C@H](CCC(N)=O)NC(=O)[C@H](CCCCN)NC(=O)[C@H](CO)NC(=O)[C@H](CC(C)C)NC(=O)[C@H](CC(=O)O)NC(=O)[C@H](CO)NC(=O)[C@@H](NC(=O)[C@H](Cc1ccccc1)NC(=O)[C@@H](NC(=O)CNC(=O)[C@H](Cc1c[nH]cn1)NC(=O)[C@H](CO)NC(=O)[C@@H](N)Cc1c[nH]cn1)[C@@H](C)O)[C@@H](C)O)C(=O)N[C@@H](CCC(=O)O)C(=O)N[C@@H](CCC(=O)O)C(=O)N[C@@H](CCC(=O)O)C(=O)N[C@@H](C)C(=O)N[C@H](C(=O)N[C@@H](CCCNC(=N)N)C(=O)N[C@@H](CC(C)C)C(=O)N[C@@H](Cc1ccccc1)C(=O)N[C@H](C(=O)N[C@@H](CCC(=O)O)C(=O)N[C@@H](Cc1c[nH]c2ccccc12)C(=O)N[C@@H](CC(C)C)C(=O)N[C@@H](CCCCN)C(=O)N[C@@H](C)C(=O)NCC(=O)NCC(=O)N1CCC[C@H]1C(=O)N[C@@H](CO)C(=O)N[C@@H](CO)C(=O)NCC(=O)N[C@@H](C)C(=O)N1CCC[C@H]1C(=O)N1CCC[C@H]1C(=O)N1CCC[C@H]1C(=O)N[C@@H](CO)C(N)=O)[C@@H](C)CC)C(C)C)C(=O)O [compound 10] | – | – | – | Stability (pH 4.5), % remaining peptide ([2]; pH 4.5, 7 days at 40° C. in solution): 92.7%; Stability (pH 7.4), % remaining peptide ([2]; pH 7.4, 7 days at 40° C. in solution): 93.4%; solubility at 2 h ([1]; pH 4.5, target concentration 10 mg/ml, 2 h agitation, read-out: Solubility (pH 4.5)): > 5000 µg/mL; solubility at 2 h ([1]; pH 7.4, target concentration 10 mg/ml, 2 h agitation, read-out: Solubility (pH 7.4)): > 5000 µg/mL
